Experiments:
H1299 cells [1] = test: MTT cell viability assay, 72 h, in the presence of RT; assay type: cell-based, human; conditions: Homo sapiens, NCI-H1299, with RT
Experimental: FIGS. 7A-7E are plots showing the results of a cell cycle analysis, based on PI staining and assessed by flow cytometry. H1299 cells were incubated with PBS (7A), DM1 (7B), DM1-NO (7C), DM1-NPs (7D), or DM1-NO-NPs (20 nM, DM1 concentration) (7E) before analysis. […] FIG. 7G is a bar graphs showing Percentage of tubulin inhibition. Tubulin polymer was collected by centrifugation (35000×g for 1 h at 30° C.) and the amount of tubulin protein sediment was quantified by measuring protein concentration. ***, P<0.001. FIG. 7H is a line graph showing cell viability, tested with H1299 cells using 72-h MTT in the presence of RT. DM1, DM1-NO, and DM1-NO-NPs were studied.
The viability of the H1299 cells after different treatments was measured by (4,5-dimethythiazon-2-yl)-2,5-diphenyl tetrazolium bromide (MTT) assay using an Infinite M200 microplate reader (BioTek's Synergy™ Mx, USA). Around 3×10^3 cells per well were seeded into a 96-well plate and cultured overnight until the cells fully adhered to the bottom of the plate. The cells were treated with different treatment groups, including free drugs (DM1 and DM1-NO), and drug loaded nanoparticles (DM1-NPs and DM1-NO-NPs) for 72 h. […] The plate was gently shake for 5 min (instrument setup) to dissolve the formazan crystals, and the absorbance at 570 nm was recorded by a microplate reader. […]

H1299 cells [2] = test: Clonogenic assay with X-ray irradiation, linear-quadratic model; assay type: cell-based, human
Experimental: Around 3×10^5 of H1299 cells were plated in a series of 25 mm petri dishes in 5 mL of complete RMPI-1640 medium, and the cells were incubated for 24 h at 37° C. Once the cells were completely adhered to the bottom of the plate, the media was replaced with fresh RPMI-1640 containing DM1 or DM1-NO with a final concentration of 20 nM. After another 12 h of incubation, the cell cultures were irradiated by X-rays (320 kV) of different doses Immediately following the X-ray irradiation, the cell monolayers were trypsinized using 0.05% Trypsin/EDTA (Gibco, Life Technologies, USA). Single cells were collected and plated onto a 25 mm petri dish in 5 mL complete media (FIG. 1K). Each dish was then incubated for 21 days to allow colonies to form. After that, the media was removed and 0.5% crystal violet in 70% methanol was used to fixed and stain the existing colonies. The plates were sufficiently and carefully rinsed, and were dried at room temperature. Once dried, the colonies were counted manually under a microscope. When observed under the microscope, colonies of […] were said to be surviving colonies. The survival rate of these colonies was normalized to the plating efficiency of the untreated control cells. The mean and standard deviation of surviving colonies in each treatment group was calculated.
The potential of DM1-NO as a radiosensitizer was assessed by clonogenic assays. Briefly, DM1 or DM1-NO was incubated with H1299 cells, the cells were irradiated with X-rays (0-10 Gy), and the resulting cells were seeded onto a petri dish (FIG. 1K). Colonies consisting more than 50 cells after 3 weeks were counted, and the data fit to a linear-quadratic model (Table 3).

H1299 cells [3] = test: MTT cell viability assay, 72 h, without RT; assay type: cell-based, human; conditions: Homo sapiens, NCI-H1299
Experimental: The viability of the H1299 cells after different treatments was measured by (4,5-dimethythiazon-2-yl)-2,5-diphenyl tetrazolium bromide (MTT) assay using an Infinite M200 microplate reader (BioTek's Synergy™ Mx, USA). Around 3×10^3 cells per well were seeded into a 96-well plate and cultured overnight until the cells fully adhered to the bottom of the plate. The cells were treated with different treatment groups, including free drugs (DM1 and DM1-NO), and drug loaded nanoparticles (DM1-NPs and DM1-NO-NPs) for 72 h. […] After that MTT reagent (in 20 μL PBS, 5 mg/mL) was added to each well. The cells were further incubated for 4 h at 37° C. The medium in each well was then removed and replaced by 100 μL DMSO. The plate was gently shake for 5 min (instrument setup) to dissolve the formazan crystals, and the absorbance at 570 nm was recorded by a microplate reader. Each experiment condition was run three times and the data were shown as the mean value plus a standard deviation (±SD).

[4] = NO release in solution with and without 6 Gy X-ray irradiation (Greiss assay); assay type: physicochemical; conditions: for NO release: Greiss assay
From the text: FIGS. 1A and 1B are schemes illustrating how DM1-NO encapsulated PLGA-b-PEG nanoparticles (DM1-NO-NPs) can accumulate in tumors through the EPR effect. In the presence of radiation and/or reduced pH in endosomes/lysosomes, the S—N bond was broken, releasing DM1 and NO. DM1 inhibits microtubule assembly, arresting cells at the more radiosensitive G2/M phase. Meanwhile, NO can react with ROS to form radicals such as peroxynitrites, causing DNA and lipid damages. The combined effects enhance the efficacy of RT. […] Quantification was based on Greiss assay. PBS, cell culture medium (RPBI-1640), DM1, and DM1-NPs were tested as controls. FIG. 1D is a histogram showing the results of DLS analysis of DM1-NO-NPs in water. FIG. 1E is a plot showing the zeta potential of DM1-NO-NPs in water. FIG. 1F is a bar graph illustrating the stability of DM1-NO under ambient conditions. After synthesis, dry product of DM1-NO was kept at room temperature and the total amount of remaining NO was quantified using Griess assay on Day 0, 7, 14, and 21. FIG. 1G is plot illustrating the stability of DM1-NO in solutions. DM1-NO (20.09 μmol) was dissolved in PBS of different pH (5.5, 6.5, and 7.4). Time-dependent NO release was measured on a Sievers NOA 280i system, which assesses NO based on gas phase chemiluminescent reaction between NO and ozone. FIG. 1H is a line graph showing release profiles for DM1-NO-NPs, tested in PBS of different pH at 37° C. by Greiss assays. FIG. 1I is a histogram showing the results of DLS analysis of DM1-NPs. FIG. 1J is a plot showing the zeta potential of DM1-NPs. FIG. 1K is a series of representative images of clonogenic assays. H1299 cells were treated with 20 nM of DM1 and DM1-NO for 12 h, followed −X-ray irradiation (6 Gy). […]
NO concentration was assessed to determine the amount of DM1-NO prodrug loaded into the DM1-NO-NPs. […] Therefore, to quantify the overall NO amount, the total nitrite (NO2-) and nitrate (NO3-) concentrations in a NP solution cells) were measured using Nitrate/Nitrite Colorimetric assay (Cayman Chemical) by following the vendor's protocol. […]

## COc1cc2cc(c1Cl)N(C)C(=O)C[C@@H](OC(=O)[C@H](C)N(C)C(=O)CCSN=O)[C@]1(C)OC1[C@H](C)[C@@H]1C[C@@](O)(NC(=O)O1)[C@H](OC)/C=C\C=C(/C)C2 (stereo partly drawn) [DM1-NO]
H1299 cells [1]
  IC50: 0.0149 µM
H1299 cells [2]; 20 nM, 12 h, X-rays 0-10 Gy
  D10 (radiation dose at 10% fractional survival): 4.39 Gy
  α (linear quadratic model best fit value): 0.0765
  β (linear quadratic model best fit value): 0.0051
H1299 cells [2]; relative to RT alone
  dose modifying factor at 10% factional survival (DMF10): 1.23
H1299 cells [3]
  IC50: 0.0259 µM
[4]; 6 Gy X-ray irradiation applied to solution
  increase of NO release: 5.14 fold
[4]; before 6 Gy X-ray irradiation
  NO release: 3.68 µM
[4]; in the presence of 6 Gy X-ray irradiation
  NO release: 18.88 µM

Source: patent publication US12570704B2, “Functionally modified maytansinoids and compositions and methods of use thereof” (University of Georgia Research Foundation, Inc., priority 2019, dated 2026)
